The target in test [1] is T1, Receptor-interacting serine/threonine-protein kinase 1 (Homo sapiens) (UniProt Q13546).
T1 sequence (whole entry): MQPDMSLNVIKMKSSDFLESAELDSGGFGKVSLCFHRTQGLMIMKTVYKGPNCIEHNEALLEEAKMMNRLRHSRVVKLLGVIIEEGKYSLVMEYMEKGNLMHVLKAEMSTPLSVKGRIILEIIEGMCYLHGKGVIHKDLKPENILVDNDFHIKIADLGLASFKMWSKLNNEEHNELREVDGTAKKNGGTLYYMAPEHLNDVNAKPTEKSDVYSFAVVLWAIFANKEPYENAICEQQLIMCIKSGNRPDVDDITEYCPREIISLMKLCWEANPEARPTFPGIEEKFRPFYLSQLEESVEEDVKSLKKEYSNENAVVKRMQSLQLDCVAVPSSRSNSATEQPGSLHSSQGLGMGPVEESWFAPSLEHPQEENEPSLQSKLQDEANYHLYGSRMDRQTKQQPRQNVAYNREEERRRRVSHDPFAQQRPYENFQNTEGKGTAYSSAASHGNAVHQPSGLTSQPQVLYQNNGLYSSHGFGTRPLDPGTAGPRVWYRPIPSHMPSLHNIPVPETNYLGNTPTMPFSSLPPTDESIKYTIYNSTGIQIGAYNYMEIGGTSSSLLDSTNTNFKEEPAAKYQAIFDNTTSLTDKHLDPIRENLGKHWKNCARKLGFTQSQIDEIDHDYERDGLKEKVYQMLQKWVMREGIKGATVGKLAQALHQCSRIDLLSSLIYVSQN
The experiment in a line: Selectivity interaction (KinomeScan (DiscoverX)) EUB0001619a RIPK1. The note with it: at 1 µM.

Test [2] concerns the target Tyrosine-protein kinase Blk (Homo sapiens) (UniProt P51451). The experiment in a line: Selectivity interaction (SelectScreen profiling (Invitrogen)) EUB0000607a BLK. Particulars: at 2 µM.
Test [3] deals with T2, Tyrosine-protein kinase receptor TYRO3 (Homo sapiens) (UniProt Q06418).
T2 sequence (whole entry): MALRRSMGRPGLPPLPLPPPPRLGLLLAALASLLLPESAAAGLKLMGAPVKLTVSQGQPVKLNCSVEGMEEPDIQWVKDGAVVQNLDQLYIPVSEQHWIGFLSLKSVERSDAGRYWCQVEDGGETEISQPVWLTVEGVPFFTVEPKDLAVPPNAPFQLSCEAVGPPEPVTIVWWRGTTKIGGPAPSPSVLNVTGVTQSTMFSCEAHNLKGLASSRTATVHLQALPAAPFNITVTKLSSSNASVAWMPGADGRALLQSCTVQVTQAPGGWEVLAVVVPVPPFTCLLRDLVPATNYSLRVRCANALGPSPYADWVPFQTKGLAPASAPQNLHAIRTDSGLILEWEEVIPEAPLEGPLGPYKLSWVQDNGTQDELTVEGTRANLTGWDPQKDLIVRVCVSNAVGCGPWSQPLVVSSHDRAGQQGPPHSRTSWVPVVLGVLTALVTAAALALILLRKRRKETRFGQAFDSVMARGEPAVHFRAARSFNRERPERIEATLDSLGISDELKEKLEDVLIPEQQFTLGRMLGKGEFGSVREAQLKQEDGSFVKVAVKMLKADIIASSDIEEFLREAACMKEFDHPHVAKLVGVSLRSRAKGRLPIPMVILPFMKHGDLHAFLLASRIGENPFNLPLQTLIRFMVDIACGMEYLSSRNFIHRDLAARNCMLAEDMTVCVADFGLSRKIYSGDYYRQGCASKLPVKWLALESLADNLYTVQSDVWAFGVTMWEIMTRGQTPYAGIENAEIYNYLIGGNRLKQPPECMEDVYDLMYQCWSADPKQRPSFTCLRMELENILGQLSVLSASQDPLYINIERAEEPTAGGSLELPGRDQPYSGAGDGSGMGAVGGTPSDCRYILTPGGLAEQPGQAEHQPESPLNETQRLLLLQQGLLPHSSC
Particulars: at 10 µM.

For test [4], the target named is T3, Inhibitor of nuclear factor kappa-B kinase subunit alpha (Homo sapiens) (UniProt O15111).
T3 sequence (whole entry): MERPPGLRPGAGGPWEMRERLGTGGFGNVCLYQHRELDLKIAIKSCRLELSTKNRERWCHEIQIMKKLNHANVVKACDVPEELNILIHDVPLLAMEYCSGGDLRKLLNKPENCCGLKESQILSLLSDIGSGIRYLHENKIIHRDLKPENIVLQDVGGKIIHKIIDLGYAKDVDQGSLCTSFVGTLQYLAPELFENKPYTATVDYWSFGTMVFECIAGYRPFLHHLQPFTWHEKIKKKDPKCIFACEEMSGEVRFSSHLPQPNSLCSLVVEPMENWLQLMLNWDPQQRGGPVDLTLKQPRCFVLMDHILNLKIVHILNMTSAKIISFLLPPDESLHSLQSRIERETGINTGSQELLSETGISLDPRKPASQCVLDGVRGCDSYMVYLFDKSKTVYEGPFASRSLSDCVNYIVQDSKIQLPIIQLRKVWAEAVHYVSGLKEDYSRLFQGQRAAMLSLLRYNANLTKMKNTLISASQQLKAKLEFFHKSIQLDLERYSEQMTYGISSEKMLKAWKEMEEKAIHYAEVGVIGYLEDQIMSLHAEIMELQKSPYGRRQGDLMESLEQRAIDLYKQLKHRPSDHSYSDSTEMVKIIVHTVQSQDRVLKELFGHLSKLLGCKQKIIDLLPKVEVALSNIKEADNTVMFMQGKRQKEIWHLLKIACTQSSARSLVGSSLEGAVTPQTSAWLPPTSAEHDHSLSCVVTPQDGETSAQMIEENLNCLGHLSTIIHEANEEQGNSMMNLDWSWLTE
The experiment in a line: Selectivity interaction (ActivX KiNativ screen (kinase selectivity in THP-1 cell lysates)) EUB0000639a CHUK. It counts as subcellular. Particulars: lysate.

Test [5] has as its target Serine/threonine-protein kinase/endoribonuclease IRE1 (Homo sapiens) (UniProt O75460). The experiment in a line: Selectivity interaction (ActivX KiNativ screen (kinase selectivity in THP-1 cell lysates)) EUB0000639a ERN1. It counts as subcellular. The note with it: lysate.
Test [6] concerns the target RAC-alpha serine/threonine-protein kinase (Homo sapiens, UniProt P31749). The experiment in a line: Selectivity interaction (KinomeScan (DiscoverX)) EUB0001079a AKT1. The note with it: at 1 µM.

Molecules are shown by their SMILES.

Serine/threonine-protein kinase/endoribonuclease IRE1 (Homo sapiens), sequence (O75460 19-977 limits assumed): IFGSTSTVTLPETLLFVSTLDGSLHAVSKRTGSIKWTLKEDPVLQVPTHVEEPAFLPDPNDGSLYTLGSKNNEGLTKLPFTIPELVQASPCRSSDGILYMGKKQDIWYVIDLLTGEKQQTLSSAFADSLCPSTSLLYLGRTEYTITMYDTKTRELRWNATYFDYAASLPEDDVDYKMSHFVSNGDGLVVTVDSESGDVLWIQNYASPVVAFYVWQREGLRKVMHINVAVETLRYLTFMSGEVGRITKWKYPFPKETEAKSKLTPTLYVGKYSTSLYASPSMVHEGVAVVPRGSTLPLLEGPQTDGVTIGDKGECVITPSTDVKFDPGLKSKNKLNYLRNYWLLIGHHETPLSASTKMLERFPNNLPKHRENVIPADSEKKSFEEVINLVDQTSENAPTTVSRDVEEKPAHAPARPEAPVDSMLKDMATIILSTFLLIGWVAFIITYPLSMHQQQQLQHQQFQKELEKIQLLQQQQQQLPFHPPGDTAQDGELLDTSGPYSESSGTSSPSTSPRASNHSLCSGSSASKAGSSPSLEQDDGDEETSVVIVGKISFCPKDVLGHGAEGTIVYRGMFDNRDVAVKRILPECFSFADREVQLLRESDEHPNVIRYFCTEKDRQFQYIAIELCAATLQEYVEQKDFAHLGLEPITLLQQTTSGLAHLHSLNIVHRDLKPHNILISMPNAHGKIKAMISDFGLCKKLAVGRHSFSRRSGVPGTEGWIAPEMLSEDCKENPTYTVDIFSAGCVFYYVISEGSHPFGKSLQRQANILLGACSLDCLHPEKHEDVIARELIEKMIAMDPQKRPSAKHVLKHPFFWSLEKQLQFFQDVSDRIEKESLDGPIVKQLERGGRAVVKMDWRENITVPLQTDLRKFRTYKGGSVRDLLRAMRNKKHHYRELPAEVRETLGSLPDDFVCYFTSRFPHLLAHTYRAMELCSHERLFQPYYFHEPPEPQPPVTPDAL
RAC-alpha serine/threonine-protein kinase, sequence (P31749 whole entry): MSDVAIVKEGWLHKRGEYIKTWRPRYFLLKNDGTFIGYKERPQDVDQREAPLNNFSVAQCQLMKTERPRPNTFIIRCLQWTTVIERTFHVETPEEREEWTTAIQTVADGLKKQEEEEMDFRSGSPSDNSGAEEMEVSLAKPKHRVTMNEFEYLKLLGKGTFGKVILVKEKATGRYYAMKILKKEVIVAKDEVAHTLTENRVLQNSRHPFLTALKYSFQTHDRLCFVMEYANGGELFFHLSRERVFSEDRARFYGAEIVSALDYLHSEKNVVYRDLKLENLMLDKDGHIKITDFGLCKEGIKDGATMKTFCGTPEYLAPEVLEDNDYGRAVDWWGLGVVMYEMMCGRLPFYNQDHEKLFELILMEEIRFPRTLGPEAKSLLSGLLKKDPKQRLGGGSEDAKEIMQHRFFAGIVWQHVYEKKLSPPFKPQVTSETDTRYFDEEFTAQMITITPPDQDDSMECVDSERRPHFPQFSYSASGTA
Tyrosine-protein kinase Blk (Homo sapiens), sequence (P51451 2-505 limits assumed): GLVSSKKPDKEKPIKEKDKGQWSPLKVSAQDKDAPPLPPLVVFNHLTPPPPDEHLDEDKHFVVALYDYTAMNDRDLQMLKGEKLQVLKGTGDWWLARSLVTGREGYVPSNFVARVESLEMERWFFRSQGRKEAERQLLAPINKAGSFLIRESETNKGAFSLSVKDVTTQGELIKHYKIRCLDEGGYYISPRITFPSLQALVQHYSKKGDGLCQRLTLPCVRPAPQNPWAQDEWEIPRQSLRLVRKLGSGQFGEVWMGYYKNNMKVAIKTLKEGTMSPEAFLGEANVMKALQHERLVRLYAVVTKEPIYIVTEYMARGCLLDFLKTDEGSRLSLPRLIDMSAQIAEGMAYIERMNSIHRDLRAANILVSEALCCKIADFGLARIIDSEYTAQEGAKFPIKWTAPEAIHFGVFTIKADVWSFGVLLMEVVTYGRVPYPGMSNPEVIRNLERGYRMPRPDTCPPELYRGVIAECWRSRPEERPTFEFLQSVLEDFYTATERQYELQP

Turning to `N#Cc1cccc(-c2c[nH]c3ncnc(N4CCOCC4)c23)c1`, in test [1], the % of control is 100%.
With `CNC(=O)Nc1ccc(-c2nc(N3CC4CCC(C3)O4)c3cnn(C4CCC5(CC4)OCCO5)c3n2)cc1`, the % of inhibition in test [2] came out at 1%.
`Cc1cc([C@@H](C)Nc2ccccc2C(=O)O)c2nc(N3CCOCC3)cc(=O)n2c1` [AZD-6482] displayed a % of control in test [3] of 100%.
For the molecule `CC[C@@H]1[C@H](F)C(=O)N[C@@H]1COc1nccc2cc(C(N)=O)c(OC)cc12` [ZIMLOVISERTIB], the % of inhibition in test [4] (at 0.01 µM) was 1.5%; in test [4] (at 0.04 µM), -2.5%; in test [4] (at 0.2 µM), 7.8%; in test [4] (at 1 µM), 6.7%; in test [4] (at 5 µM), -16.4%; in test [5] (at 0.01 µM), -5.9%. Further, the % of inhibition in test [5] (at 0.04 µM) is -16.2%; in test [5] (at 0.2 µM), -1.2%; in test [5] (at 1 µM), -2.9%; in test [5] (at 5 µM), -24%.
`Nc1cnc(N2CCc3cc(S(=O)(=O)Nc4c(F)cc(Cl)cc4F)cc(N4CCCC4=O)c32)nc1` [TP-020n] registered a % of control in test [6] of 100%.

Source of the values: ChEMBL document CHEMBL5465560, “Selectivity Literature for EUbOPEN Chemogenomic Library” (2024).
